Measurements from patent US9464084B2, “P2X7 modulators” (Janssen Pharmaceutica NV, priority 2013, dated 2016).

What was measured:
P2X7 [1] = molecular target: T1, P2X7 (Homo sapiens (Human), UniProt Q99572); experiment: P2X7 antagonism in human PBMCs (LPS + Bz-ATP induced IL-1β release, ELISA); type: cell-based; conditions: LPS 30 ng/ml, Bz-ATP 0.5 mM; for PBMC 10 μM (% control): compound 10 μM;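 as to all read-outs here: PBMCs from donor human blood, with a further 1.5 h incubation of the cells in the assay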
P2X7 [2] = molecular target: T1, P2X7; experiment: Ca2+ flux (FLIPR) in 1321N1 cells expressing recombinant human P2X7 channel; type: cell-based; conditions: 250 μM BzATP;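 also: Calcium-4 dye-loaded cells exposed to compound for 30 min before agonist addition, fluorescence change read 180 s after agonist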
rat P2X7 = rat P2X7 (Rattus norvegicus (Rat), UniProt Q64663); experiment: Ca2+ flux (FLIPR) in 1321N1 cells expressing recombinant rat P2X7 channel; type: cell-based; conditions: 250 μM BzATP;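 also: Calcium-4 dye fluorescence change read 180 s after agonist addition, following 30 min cell preincubation with test compound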
P2X7 [3] = molecular target: T1, P2X7; experiment: Radioligand binding, tritiated A-804598, human P2X7-1321N1 cell membranes; conditions: 1 hour at 4° C.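 Also: ki obtained from the binding IC50 after correction for tracer concentration and tracer affinity.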
Experimental: On the day of the experiment, cell membrane preparations were made according to standard published methods. […] The assay was terminated by filtration (GF/B filters pre-soaked with 0.3% PEI) and washed with washing buffer (Tris-HCl 50 mM). The IC50 generated in the binding assay was corrected for tracer concentration and affinity of the tracer to derive at the affinity (Ki) of the test compounds.

Sequence of rat P2X7 (Q64663 whole entry): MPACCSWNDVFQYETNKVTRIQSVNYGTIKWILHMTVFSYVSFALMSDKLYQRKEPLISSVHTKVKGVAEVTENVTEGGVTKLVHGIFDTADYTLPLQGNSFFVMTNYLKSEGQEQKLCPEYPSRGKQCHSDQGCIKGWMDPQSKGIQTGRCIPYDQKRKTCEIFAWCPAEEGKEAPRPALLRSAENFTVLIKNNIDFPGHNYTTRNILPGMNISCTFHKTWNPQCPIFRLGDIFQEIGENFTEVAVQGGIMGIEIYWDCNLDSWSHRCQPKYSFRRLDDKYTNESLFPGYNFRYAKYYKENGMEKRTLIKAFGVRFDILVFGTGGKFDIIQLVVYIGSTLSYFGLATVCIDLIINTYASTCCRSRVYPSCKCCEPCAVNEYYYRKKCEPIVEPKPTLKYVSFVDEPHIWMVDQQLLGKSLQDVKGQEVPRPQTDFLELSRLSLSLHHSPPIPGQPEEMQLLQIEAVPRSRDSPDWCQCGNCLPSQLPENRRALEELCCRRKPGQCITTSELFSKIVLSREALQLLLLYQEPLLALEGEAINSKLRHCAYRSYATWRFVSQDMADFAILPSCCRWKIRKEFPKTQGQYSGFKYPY
T1 sequence (Q99572 whole entry): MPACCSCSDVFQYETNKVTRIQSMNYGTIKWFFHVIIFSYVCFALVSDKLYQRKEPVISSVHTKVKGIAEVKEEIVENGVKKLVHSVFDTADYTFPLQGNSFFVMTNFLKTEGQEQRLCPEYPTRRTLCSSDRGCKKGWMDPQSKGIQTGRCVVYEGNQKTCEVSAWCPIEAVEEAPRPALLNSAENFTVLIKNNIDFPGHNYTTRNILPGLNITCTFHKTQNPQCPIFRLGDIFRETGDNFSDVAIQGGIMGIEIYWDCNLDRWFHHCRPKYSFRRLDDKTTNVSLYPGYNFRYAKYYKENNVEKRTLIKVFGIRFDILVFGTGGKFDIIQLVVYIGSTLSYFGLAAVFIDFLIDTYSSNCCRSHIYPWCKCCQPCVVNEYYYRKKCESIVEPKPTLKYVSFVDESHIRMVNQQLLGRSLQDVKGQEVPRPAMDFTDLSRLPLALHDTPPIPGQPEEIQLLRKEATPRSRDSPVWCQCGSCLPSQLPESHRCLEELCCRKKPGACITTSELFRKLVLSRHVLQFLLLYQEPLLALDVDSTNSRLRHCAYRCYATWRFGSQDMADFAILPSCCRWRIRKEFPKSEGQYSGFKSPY

Row | PBMC 1 μM (% control) (P2X7 [1]; compound 1 μM) | IC50 (P2X7 [2]) | IC50 (rat P2X7) | Ki (P2X7 [3]) | PBMC 10 μM (% control) (P2X7 [1]) | Compound
1 | 22.0 % control | 50.1 nM | 1000 nM | 63.1 nM | – | O=C(c1cccc(C(F)(F)F)c1F)N1CCc2c(nnn2-c2ccccn2)C1 [Example 123, (2-Fluoro-3-(trifluoromethyl)phenyl)(1-(pyridin-2-yl)-6,7-dihydro-1H-[1,2,3]triazolo[4,5-c]pyridin-5(4H)-yl)methanone]
2 | – | 22.1 nM | 89.1 nM | 39.8 nM | 9.2 % control | Cn1ccc(-n2nnc3c2CCN(C(=O)c2cccc(C(F)(F)F)c2Cl)C3)n1 [Example 127, (2-Chloro-3-(trifluoromethyl)phenyl)(1-(1-methyl-1H-pyrazol-3-yl)-6,7-dihydro-1H-[1,2,3]triazolo[4,5-c]pyridin-5(4H)-yl)methanone]
3 | – | 78.3 nM | 4430 nM | 50.1 nM | 3.8 % control | Cc1c(C(=O)N2CCc3c(nnn3-c3ccccn3)C2)ccc(F)c1F [Example 132, (3,4-Difluoro-2-methylphenyl)(1-(pyridin-2-yl)-6,7-dihydro-1H-[1,2,3]triazolo-[4,5-c]pyridin-5(4H)-yl)methanone]
4 | – | 3.3 nM | 1680 nM | 50.1 nM | 4.2 % control | CC1c2nnn(-c3ncc(F)cn3)c2CCN1C(=O)c1cccc(Cl)c1Cl (stereo not drawn) [Example 174, (2,3-Dichlorophenyl)(1-(5-fluoropyrimidin-2-yl)-4-methyl-6,7-dihydro-1H-[1,2,3]triazolo[4,5-c]pyridin-5(4H)-yl)methanone]
5 | – | 3.9 nM | 6.3 nM | 13.5 nM | 0.5 % control | CC1Cc2c(nnn2-c2cc[nH]n2)CN1C(=O)c1cccc(C(F)(F)F)c1F (stereo not drawn) [Example 189, (2-fluoro-3-(trifluoromethyl)phenyl)(6-methyl-1-(1H-pyrazol-3-yl)-6,7-dihydro-1H-[1,2,3]triazolo[4,5-c]pyridin-5(4H)-yl)methanone]
6 | – | 6.2 nM | 42.3 nM | 9.1 nM | −1.0 % control | Cc1ccnc(-n2nnc3c2CCN(C(=O)c2cccc(Cl)c2Cl)C3C)n1 (stereo not drawn) [Example 225, (2,3-dichlorophenyl)(4-methyl-1-(4-methylpyrimidin-2-yl)-6,7-dihydro-1H-[1,2,3]triazolo[4,5-c]pyridin-5(4H)-yl)methanone]
7 | – | 81.5 nM | 60.4 nM | 25.1 nM | −3.4 % control | CC1Cc2c(nnn2-c2ccc(F)cc2)C(C)N1C(=O)c1cccc(Cl)c1Cl (stereo not drawn) [Example 242, (2,3-Dichlorophenyl)(1-(4-fluorophenyl)-4,6-dimethyl-6,7-dihydro-1H-[1,2,3]triazolo[4,5-c]pyridin-5(4H)-yl)methanone]
8 | – | 161 nM | 2070 nM | 100 nM | −7.3 % control | CC1CN(C(=O)c2cccc(C(F)(F)F)c2Cl)Cc2nnn(-c3ccccc3)c21 (stereo not drawn) [Example 245, (2-Chloro-3-(trifluoromethyl)phenyl)(7-methyl-1-phenyl-6,7-dihydro-1H-[1,2,3]triazolo[4,5-c]pyridin-5(4H)-yl)methanone]
9 | – | 230 nM | 6530 nM | 174 nM | −3.1 % control | CC1CN(C(=O)c2cccc(C(F)(F)F)c2Cl)Cc2nnn(-c3ccc(F)cc3)c21 (stereo not drawn) [Example 246, (2-Chloro-3-(trifluoromethyl)phenyl)(1-(4-fluorophenyl)-7-methyl-6,7-dihydro-1H-[1,2,3]triazolo[4,5-c]pyridin-5(4H)-yl)methanone]
10 | – | 124 nM | 9110 nM | 144 nM | 11.6 % control | Cc1cncc(-n2nnc3c2CCN(C(=O)c2cccc(C(F)(F)F)c2Cl)C3C)n1 (stereo not drawn) [Example 251, (2-Chloro-3-(trifluoromethyl)phenyl)(4-methyl-1-(6-methylpyrazin-2-yl)-6,7-dihydro-1H-[1,2,3]triazolo[4,5-c]pyridin-5(4H)-yl)methanone]
11 | – | 18.8 nM | 22.3 nM | 28.2 nM | −0.8 % control | Cc1ccnc(-n2nnc3c2CCN(C(=O)c2cccc(C(F)(F)F)c2Cl)C3C)n1 (stereo not drawn) [Example 252, (2-Chloro-3-(trifluoromethyl)phenyl)(4-methyl-1-(4-methylpyrimidin-2-yl)-6,7-dihydro-1H-[1,2,3]triazolo[4,5-c]pyridin-5(4H)-yl)methanone]
12 | – | 27 nM | 6930 nM | 35.5 nM | 1.4 % control | COc1cccnc1-n1nnc2c1CCN(C(=O)c1cccc(C(F)(F)F)c1Cl)C2C (stereo not drawn) [Example 260, (2-Chloro-3-(trifluoromethyl)phenyl)(1-(3-methoxypyridin-2-yl)-4-methyl-6,7-dihydro-1H-[1,2,3]triazolo[4,5-c]pyridin-5(4H)-yl)methanone]
13 | – | 12.7 nM | 12.6 nM | 20 nM | 5.8 % control | CC1Cc2c(-c3ccnn3C)nn(C)c2CN1C(=O)c1cccc(C(F)(F)F)c1Cl (stereo not drawn) [Example 266, (2-chloro-3-(trifluoromethyl)phenyl)(1,5-dimethyl-3-(1-methyl-1H-pyrazol-5-yl)-4,5-dihydro-1H-pyrazolo[3,4-c]pyridin-6(7H)-yl)methanone]
14 | – | 8.1 nM | 9.5 nM | 10 nM | −50.8 % control | CC1Cc2c(-c3ccn[nH]3)n[nH]c2CN1C(=O)c1cccc(C(F)(F)F)c1Cl (stereo not drawn) [Example 267, (2-chloro-3-(trifluoromethyl)phenyl)(5-methyl-3-(1H-pyrazol-5-yl)-4,5-dihydro-1H-pyrazolo[3,4-c]pyridin-6(7H)-yl)methanone]
15 | – | 622 nM | 3020 nM | 100 nM | −7.6 % control | O=C(c1ccc(Cl)cc1F)N1CCc2c(nnn2-c2cnccn2)C1 [Example 272, (4-chloro-2-fluorophenyl)(1-(pyrazin-2-yl)-6,7-dihydro-1H-[1,2,3]triazolo[4,5-c]pyridin-5(4H)-yl)methanone]
16 | – | 7.6 nM | 83.2 nM | 18.2 nM | −2.1 % control | CC1c2nnn(-c3cnccn3)c2CCN1C(=O)c1cccc(C(F)(F)F)c1F (stereo not drawn) [Example 273, (2-fluoro-3-(trifluoromethyl)phenyl)(4-methyl-1-(pyrazin-2-yl)-6,7-dihydro-1H-[1,2,3]triazolo[4,5-c]pyridin-5(4H)-yl)methanone]
17 | – | 74.5 nM | 1880 nM | 41.7 nM | −4.8 % control | CC1c2nnn(-c3cnccn3)c2CCN1C(=O)c1ccc(Cl)cc1F (stereo not drawn) [Example 274, (4-chloro-2-fluorophenyl)(4-methyl-1-(pyrazin-2-yl)-6,7-dihydro-1H-[1,2,3]triazolo[4,5-c]pyridin-5(4H)-yl)methanone]
18 | – | 46.9 nM | 673 nM | 24.5 nM | −8.3 % control | CC1c2nnn(-c3ncccn3)c2CCN1C(=O)c1ccc(Cl)cc1F (stereo not drawn) [Example 275, (4-chloro-2-fluorophenyl)(4-methyl-1-(pyrimidin-2-yl)-6,7-dihydro-1H-[1,2,3]triazolo[4,5-c]pyridin-5(4H)-yl)methanone]
19 | – | 6.4 nM | 869 nM | 5.8 nM | −0.9 % control | Cc1c(C(=O)N2CCc3c(nnn3-c3cnccn3)C2)cccc1C(F)(F)F [Example 276, (2-methyl-3-(trifluoromethyl)phenyl)(1-(pyrazin-2-yl)-6,7-dihydro-1H-[1,2,3]triazolo[4,5-c]pyridin-5(4H)-yl)methanone]
20 | – | 7.2 nM | 92.3 nM | 12.6 nM | −19.5 % control | Cc1c(C(=O)N2CCc3c(nnn3-c3cnccn3)C2C)cccc1C(F)(F)F (stereo not drawn) [Example 278, (4-methyl-1-(pyrazin-2-yl)-6,7-dihydro-1H-[1,2,3]triazolo[4,5-c]pyridin-5(4H)-yl)(2-methyl-3-(trifluoromethyl)phenyl)methanone]
21 | – | 8.6 nM | 438 nM | 11.5 nM | −16.9 % control | CC1c2nnn(-c3cnccn3)c2CCN1C(=O)c1ccc(Cl)cc1Cl (stereo not drawn) [Example 279, (2,4-dichlorophenyl)(4-methyl-1-(pyrazin-2-yl)-6,7-dihydro-1H-[1,2,3]triazolo[4,5-c]pyridin-5(4H)-yl)methanone]
22 | – | 568 nM | 1230 nM | 63.1 nM | 3.4 % control | O=C(c1ccc(Cl)cc1F)N1CCc2c(nnn2-c2ncccn2)C1 [Example 280, (4-chloro-2-fluorophenyl)(1-(pyrimidin-2-yl)-6,7-dihydro-1H-[1,2,3]triazolo[4,5-c]pyridin-5(4H)-yl)methanone]
23 | – | 3.1 nM | 163 nM | 2.3 nM | −1.9 % control | Cc1c(C(=O)N2CCc3c(nnn3-c3ncccn3)C2)cccc1C(F)(F)F [Example 281, (2-methyl-3-(trifluoromethyl)phenyl)(1-(pyrimidin-2-yl)-6,7-dihydro-1H-[1,2,3]triazolo[4,5-c]pyridin-5(4H)-yl)methanone]
24 | – | 4.7 nM | 192 nM | 6.3 nM | −6.3 % control | CC1c2nnn(-c3ncccn3)c2CCN1C(=O)c1ccc(Cl)cc1Cl (stereo not drawn) [Example 283, (2,4-dichlorophenyl)(4-methyl-1-(pyrimidin-2-yl)-6,7-dihydro-1H-[1,2,3]triazolo[4,5-c]pyridin-5(4H)-yl)methanone]
